# Measurements published in publication doi:10.1101/2021.04.08.439011v1 (biorxiv, 2021).
# Tests used:
# [1] = target: ACVR1 (Homo sapiens, UniProt Q04771); conditions: 1 µM; binder
# [2] = target: ADCK3 (Homo sapiens, UniProt Q8NI60); conditions: 1 µM; binder
# [3] = target: AMPK-alpha1 (Homo sapiens, UniProt Q13131); conditions: 1 µM; binder
# [4] = target: BMPR2 (Homo sapiens, UniProt Q13873); conditions: 1 µM; binder
# [5] = target: BRAF(V600E) (Homo sapiens, UniProt P15056, V600E); conditions: 1 µM; binder
# [6] = target: BTK (Homo sapiens, UniProt Q06187); conditions: 1 µM; binder
# [7] = target: BUB1 (Homo sapiens, UniProt O43683); conditions: 1 µM; binder
# [8] = target: DCAMKL3 (Homo sapiens, UniProt Q9C098); conditions: 1 µM; binder
# [9] = target: DDR1 (Homo sapiens, UniProt Q08345); conditions: 1 µM; binder
# [10] = target: FGFR3 (Homo sapiens, UniProt P22607); conditions: 1 µM; binder
# [11] = target: FLT3(D835V) (Homo sapiens, UniProt P36888, D835V); conditions: 1 µM; binder
# [12] = target: IGF1R (Homo sapiens, UniProt P08069); conditions: 1 µM; binder
# [13] = target: IRAK4 (Homo sapiens, UniProt Q9NWZ3); conditions: 1 µM; binder
# [14] = target: KIT(D816H) (Homo sapiens, UniProt P10721, D816H); conditions: 1 µM; binder
# [15] = target: KIT(V559D) (Homo sapiens, UniProt P10721, V559D); conditions: 1 µM; binder
# [16] = target: LYN (Homo sapiens, UniProt P07948); conditions: 1 µM; binder
# Sequence of LYN (P07948 whole entry): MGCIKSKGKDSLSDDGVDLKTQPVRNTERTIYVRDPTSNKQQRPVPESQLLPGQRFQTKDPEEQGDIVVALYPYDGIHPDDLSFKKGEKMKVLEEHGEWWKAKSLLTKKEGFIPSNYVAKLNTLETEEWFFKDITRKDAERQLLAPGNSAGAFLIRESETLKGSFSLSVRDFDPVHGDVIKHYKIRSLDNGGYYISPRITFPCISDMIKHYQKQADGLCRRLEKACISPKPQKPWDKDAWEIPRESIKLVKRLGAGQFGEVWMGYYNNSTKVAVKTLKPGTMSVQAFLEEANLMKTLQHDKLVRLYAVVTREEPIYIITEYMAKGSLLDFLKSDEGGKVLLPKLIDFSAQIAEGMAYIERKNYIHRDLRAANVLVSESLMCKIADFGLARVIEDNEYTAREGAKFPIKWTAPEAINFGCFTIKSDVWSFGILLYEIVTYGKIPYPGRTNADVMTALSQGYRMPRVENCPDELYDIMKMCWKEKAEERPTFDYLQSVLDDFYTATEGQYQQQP
# [17] = target: MAP3K3 (Homo sapiens, UniProt Q99759); conditions: 1 µM; binder
# [18] = target: MARK4 (Homo sapiens, UniProt Q96L34); conditions: 1 µM; binder
# [19] = target: MKNK1 (Homo sapiens, UniProt Q9BUB5); conditions: 1 µM; binder
# [20] = target: MKNK2 (Homo sapiens, UniProt Q9HBH9); conditions: 1 µM; binder
# [21] = target: MYLK (Homo sapiens, UniProt Q15746); conditions: 1 µM; binder
# [22] = target: PAK2 (Homo sapiens, UniProt Q13177); conditions: 1 µM; binder
# [23] = target: PIM1 (Homo sapiens, UniProt P11309); conditions: 1 µM; binder
# Sequence of PIM1 (P11309 whole entry): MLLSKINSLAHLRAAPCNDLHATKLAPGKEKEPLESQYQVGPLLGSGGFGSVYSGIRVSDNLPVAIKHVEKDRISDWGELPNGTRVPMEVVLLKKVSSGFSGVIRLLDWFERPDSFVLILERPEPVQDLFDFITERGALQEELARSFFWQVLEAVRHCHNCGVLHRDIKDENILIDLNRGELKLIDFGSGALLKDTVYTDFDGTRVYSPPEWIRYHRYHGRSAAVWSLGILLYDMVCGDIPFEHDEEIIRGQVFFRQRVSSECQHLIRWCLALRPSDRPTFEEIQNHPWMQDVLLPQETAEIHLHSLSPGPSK
# [24] = target: PRKCQ (Homo sapiens, UniProt Q04759); conditions: 1 µM; binder
# [25] = target: RPS6KA4 (Homo sapiens, UniProt O75676); conditions: Kin.Dom.1 N-terminal; binder
# [26] = target: SGK (Homo sapiens, UniProt O00141); conditions: 1 µM; binder
# Sequence of SGK (O00141 whole entry): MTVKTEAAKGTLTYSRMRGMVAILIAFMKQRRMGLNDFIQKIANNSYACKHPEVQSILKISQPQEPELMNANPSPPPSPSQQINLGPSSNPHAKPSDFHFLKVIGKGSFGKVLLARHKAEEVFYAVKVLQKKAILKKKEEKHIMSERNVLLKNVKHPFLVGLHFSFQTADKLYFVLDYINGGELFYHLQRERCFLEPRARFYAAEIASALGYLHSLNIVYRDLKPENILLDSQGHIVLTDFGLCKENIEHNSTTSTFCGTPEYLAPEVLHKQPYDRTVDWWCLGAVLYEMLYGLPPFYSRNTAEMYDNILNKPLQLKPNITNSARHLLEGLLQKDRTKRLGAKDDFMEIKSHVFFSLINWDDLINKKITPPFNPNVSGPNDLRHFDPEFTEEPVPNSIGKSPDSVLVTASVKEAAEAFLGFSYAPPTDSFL
# [27] = target: TESK1 (Homo sapiens, UniProt Q15569); conditions: 1 µM; binder
# Sequence of TESK1 (Q15569 whole entry): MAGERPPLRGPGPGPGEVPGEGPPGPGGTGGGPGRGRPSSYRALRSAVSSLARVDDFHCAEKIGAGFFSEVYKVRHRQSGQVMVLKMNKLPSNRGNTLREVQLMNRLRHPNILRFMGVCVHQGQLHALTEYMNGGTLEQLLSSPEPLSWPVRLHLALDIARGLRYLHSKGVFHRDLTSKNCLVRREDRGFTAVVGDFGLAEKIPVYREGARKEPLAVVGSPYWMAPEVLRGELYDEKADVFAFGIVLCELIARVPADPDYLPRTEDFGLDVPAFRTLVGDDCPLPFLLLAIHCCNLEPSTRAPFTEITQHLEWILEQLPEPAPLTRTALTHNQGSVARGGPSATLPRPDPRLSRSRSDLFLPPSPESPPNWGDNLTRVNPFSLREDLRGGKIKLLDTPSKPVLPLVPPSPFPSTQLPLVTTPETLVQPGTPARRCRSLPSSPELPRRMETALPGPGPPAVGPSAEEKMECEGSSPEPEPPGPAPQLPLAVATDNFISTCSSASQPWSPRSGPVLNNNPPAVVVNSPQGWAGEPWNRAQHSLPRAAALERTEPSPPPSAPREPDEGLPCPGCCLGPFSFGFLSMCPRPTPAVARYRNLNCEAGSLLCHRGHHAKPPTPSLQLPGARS
# [28] = target: TRPM6 (Homo sapiens, UniProt Q9BX84); conditions: 1 µM; binder
# Sequence of TRPM6 (Q9BX84 whole entry): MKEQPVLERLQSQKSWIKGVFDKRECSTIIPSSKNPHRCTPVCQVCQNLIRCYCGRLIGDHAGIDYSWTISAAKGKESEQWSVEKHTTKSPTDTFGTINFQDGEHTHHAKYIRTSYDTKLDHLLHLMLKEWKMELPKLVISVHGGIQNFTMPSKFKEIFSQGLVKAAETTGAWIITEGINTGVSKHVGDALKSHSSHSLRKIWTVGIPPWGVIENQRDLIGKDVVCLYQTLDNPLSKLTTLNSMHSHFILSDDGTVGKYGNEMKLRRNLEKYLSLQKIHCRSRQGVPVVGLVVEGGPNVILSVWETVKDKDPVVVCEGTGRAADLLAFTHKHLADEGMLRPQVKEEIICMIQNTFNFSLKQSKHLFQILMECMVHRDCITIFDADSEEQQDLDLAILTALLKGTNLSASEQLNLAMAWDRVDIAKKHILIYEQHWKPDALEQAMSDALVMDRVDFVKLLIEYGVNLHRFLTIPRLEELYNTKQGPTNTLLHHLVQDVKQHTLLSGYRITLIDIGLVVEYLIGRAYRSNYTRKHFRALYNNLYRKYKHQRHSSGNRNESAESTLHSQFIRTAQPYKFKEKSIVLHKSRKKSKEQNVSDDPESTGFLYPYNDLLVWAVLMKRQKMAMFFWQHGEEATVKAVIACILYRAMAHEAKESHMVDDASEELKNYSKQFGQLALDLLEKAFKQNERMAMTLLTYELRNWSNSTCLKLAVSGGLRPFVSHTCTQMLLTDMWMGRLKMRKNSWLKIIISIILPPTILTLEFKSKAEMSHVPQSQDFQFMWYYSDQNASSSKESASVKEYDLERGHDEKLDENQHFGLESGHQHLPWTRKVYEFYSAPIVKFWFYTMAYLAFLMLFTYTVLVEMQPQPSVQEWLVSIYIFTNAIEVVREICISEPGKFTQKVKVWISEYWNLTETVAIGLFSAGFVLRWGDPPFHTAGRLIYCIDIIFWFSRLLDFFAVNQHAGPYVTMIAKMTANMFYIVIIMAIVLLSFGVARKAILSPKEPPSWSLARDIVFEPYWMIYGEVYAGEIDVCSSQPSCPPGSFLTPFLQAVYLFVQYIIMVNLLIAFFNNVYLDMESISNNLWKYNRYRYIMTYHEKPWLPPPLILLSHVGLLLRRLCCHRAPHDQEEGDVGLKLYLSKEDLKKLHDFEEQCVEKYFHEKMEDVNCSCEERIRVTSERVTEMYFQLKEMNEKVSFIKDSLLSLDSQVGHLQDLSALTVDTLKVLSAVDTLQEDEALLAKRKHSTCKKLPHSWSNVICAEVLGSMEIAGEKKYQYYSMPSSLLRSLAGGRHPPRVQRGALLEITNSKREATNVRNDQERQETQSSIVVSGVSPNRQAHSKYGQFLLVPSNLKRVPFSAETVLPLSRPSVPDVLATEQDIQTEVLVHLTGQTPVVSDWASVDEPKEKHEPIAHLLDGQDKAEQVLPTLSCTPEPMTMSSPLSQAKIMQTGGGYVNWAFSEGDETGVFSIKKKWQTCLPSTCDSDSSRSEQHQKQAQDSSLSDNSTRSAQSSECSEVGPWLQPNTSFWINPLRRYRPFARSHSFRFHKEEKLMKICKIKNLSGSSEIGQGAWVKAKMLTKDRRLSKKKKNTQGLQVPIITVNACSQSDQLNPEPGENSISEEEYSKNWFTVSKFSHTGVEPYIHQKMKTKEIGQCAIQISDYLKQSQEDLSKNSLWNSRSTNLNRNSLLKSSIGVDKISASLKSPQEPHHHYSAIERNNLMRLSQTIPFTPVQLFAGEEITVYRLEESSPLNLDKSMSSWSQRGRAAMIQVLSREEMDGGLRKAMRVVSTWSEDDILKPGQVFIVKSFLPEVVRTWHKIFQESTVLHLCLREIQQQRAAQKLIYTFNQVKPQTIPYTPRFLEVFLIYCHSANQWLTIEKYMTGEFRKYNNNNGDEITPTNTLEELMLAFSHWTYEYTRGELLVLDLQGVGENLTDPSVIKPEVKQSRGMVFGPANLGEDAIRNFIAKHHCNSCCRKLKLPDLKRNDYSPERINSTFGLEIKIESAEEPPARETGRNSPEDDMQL
# [29] = target: TXK (Homo sapiens, UniProt P42681); conditions: 1 µM; binder
# Sequence of TXK (P42681 whole entry): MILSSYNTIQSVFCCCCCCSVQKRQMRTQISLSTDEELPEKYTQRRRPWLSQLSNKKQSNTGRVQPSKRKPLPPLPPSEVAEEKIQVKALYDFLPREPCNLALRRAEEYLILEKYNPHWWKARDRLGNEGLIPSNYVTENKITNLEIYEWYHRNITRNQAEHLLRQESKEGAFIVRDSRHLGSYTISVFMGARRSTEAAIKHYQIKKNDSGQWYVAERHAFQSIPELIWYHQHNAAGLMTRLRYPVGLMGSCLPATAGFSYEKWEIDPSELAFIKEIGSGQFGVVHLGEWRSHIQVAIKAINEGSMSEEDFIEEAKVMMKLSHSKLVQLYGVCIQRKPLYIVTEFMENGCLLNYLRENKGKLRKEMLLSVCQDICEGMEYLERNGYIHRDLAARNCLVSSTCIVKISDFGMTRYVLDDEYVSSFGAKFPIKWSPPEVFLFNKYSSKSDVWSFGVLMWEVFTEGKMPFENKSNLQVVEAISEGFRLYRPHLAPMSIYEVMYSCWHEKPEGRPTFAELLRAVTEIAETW
# [30] = target: ZAP70 (Homo sapiens, UniProt P43403); conditions: 1 µM; binder
# Sequence of ACVR1 (Q04771 whole entry): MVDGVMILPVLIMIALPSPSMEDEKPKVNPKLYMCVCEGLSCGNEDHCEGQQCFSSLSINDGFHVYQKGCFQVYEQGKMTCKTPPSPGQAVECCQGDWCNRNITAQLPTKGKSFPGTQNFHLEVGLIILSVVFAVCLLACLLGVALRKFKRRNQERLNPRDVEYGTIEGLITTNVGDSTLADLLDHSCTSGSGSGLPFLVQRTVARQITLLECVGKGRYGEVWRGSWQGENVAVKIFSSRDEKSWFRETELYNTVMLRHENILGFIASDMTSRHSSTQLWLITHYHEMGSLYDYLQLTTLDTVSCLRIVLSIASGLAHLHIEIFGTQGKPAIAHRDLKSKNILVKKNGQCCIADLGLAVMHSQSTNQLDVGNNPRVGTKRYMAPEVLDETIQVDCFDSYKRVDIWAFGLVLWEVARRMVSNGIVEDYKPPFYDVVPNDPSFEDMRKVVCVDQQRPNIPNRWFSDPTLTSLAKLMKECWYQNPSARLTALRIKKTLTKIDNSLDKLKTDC
smiles,measurement,setting,value
"CNc1ncc2cc(-c3ccc(-c4cccc(C)n4)cc3Cl)c(=O)n(C[C@H]3OC[C@H](N)CO3)c2n1 [compound 6, G-5555]",Percent Control,[1],100%
same,Percent Control,[2],100%
same,Percent Control,[3],40%
same,Percent Control,[4],100%
same,Percent Control,[5],93%
same,Percent Control,[6],63%
same,Percent Control,[7],89%
same,Percent Control,[8],0.5%
same,Percent Control,[9],53%
same,Percent Control,[10],100%
same,Percent Control,[11],67%
same,Percent Control,[12],100%
same,Percent Control,[13],95%
same,Percent Control,[14],100%
same,Percent Control,[15],100%
same,Percent Control,[16],74%
same,Percent Control,[17],23%
same,Percent Control,[18],100%
same,Percent Control,[19],100%
same,Percent Control,[20],97%
same,Percent Control,[21],85%
same,Percent Control,[22],0%
same,Percent Control,[23],100%
same,Percent Control,[24],55%
same,Percent Control,[25],100%
same,Percent Control,[26],100%
same,Percent Control,[27],99%
same,Percent Control,[28],100%
same,Percent Control,[29],100%
same,Percent Control,[30],100%
